Experimental data published in ChEMBL document CHEMBL1136230, “Antiallergic principles from Alpinia galanga: structural requirements of phenylpropanoids for inhibition of degranulation and release of TNF-alpha and IL-4 in RBL-2H3 cells” (Bioorg Med Chem Lett, 2003).
One block for each compound: values may come before it.

Key:
RBL-2H3 [1] = assay: Percentage inhibition against release of beta-hexosaminidase from RBL-2H3 cells at 100 uM from control; type: functional; conditions: Rattus norvegicus
Mus musculus [2] = assay: In vivo inhibitory activity against leakage of dye on ear PCA reaction 30 min after 12.5 mg/kg oral administration in mice; type: functional; set-up: scale not given: the % may be the effect or the level left
Mus musculus [3] = assay: In vivo inhibitory activity against leakage of dye on ear PCA reaction 30 min after 25 mg/kg oral administration in mice; type: functional; set-up: scale not given: the % may be the effect or the level left
Mus musculus [4] = assay: In vivo inhibitory activity against leakage of dye on ear PCA reaction 30 min after 50 mg/kg oral administration in mice; type: functional; set-up: scale not given: the % may be the effect or the level left
Mus musculus [5] = assay: In vivo inhibitory activity against leakage of dye on ear PCA reaction 30 min after 6.25 mg/kg oral administration in mice; type: functional; set-up: scale not given: the % may be the effect or the level left
RBL-2H3 [6] = assay: Inhibitory activity against IL-4 production in RBL-2H3 cells was determined; type: functional, cell-based; conditions: Rattus norvegicus
RBL-2H3 [7] = assay: Inhibitory activity against release of beta-hexosaminidase from RBL-2H3 cells; type: functional, cell-based; conditions: Rattus norvegicus
RBL-2H3 [8] = assay: Percentage inhibition against antigen-induced IL-4 production in RBL-2H3 cells at 0 uM concentration; type: functional, Rattus norvegicus
RBL-2H3 [9] = assay: Percentage inhibition against antigen-induced IL-4 production in RBL-2H3 cells at 10 uM concentration; type: functional; conditions: Rattus norvegicus
RBL-2H3 [10] = assay: Percentage inhibition against antigen-induced IL-4 production in RBL-2H3 cells at 100 uM concentration; type: functional; conditions: Rattus norvegicus
RBL-2H3 [11] = assay: Percentage inhibition against antigen-induced IL-4 production in RBL-2H3 cells at 3 uM concentration; type: functional; conditions: Rattus norvegicus
RBL-2H3 [12] = assay: Percentage inhibition against antigen-induced IL-4 production in RBL-2H3 cells at 30 uM concentration; type: functional; conditions: Rattus norvegicus
RBL-2H3 [13] = assay: Percentage inhibition against antigen-induced TNF-alpha production in RBL-2H3 cells at 0 uM concentration; type: functional, Rattus norvegicus
RBL-2H3 [14] = assay: Percentage inhibition against antigen-induced TNF-alpha production in RBL-2H3 cells at 10 uM concentration; type: functional; conditions: Rattus norvegicus
RBL-2H3 [15] = assay: Percentage inhibition against antigen-induced TNF-alpha production in RBL-2H3 cells at 3 uM concentration; type: functional; conditions: Rattus norvegicus
RBL-2H3 [16] = assay: Percentage inhibition against antigen-induced TNF-alpha production in RBL-2H3 cells at 30 uM concentration; type: functional; conditions: Rattus norvegicus
RBL-2H3 [17] = assay: Inhibitory activity against TNF-alpha production in RBL-2H3 cells was determined; type: functional, cell-based; conditions: Rattus norvegicus
RBL-2H3 [18] = assay: Percentage inhibition against antigen-induced TNF-alpha production in RBL-2H3 cells at 100 uM concentration; type: functional; conditions: Rattus norvegicus
Mus musculus [19] = assay: In vivo inhibitory activity against leakage of dye on ear PCA reaction 30 min after 100 mg/kg oral administration in mice; type: functional; set-up: scale not given: the % may be the effect or the level left
Mus musculus [20] = assay: In vivo inhibitory activity against leakage of dye on ear PCA reaction 30 min after 200 mg/kg oral administration in mice; type: functional; set-up: scale not given: the % may be the effect or the level left
Mus musculus [21] = assay: In vivo inhibitory activity against leakage of dye on ear PCA reaction 30 min after 400 mg/kg oral administration in mice; type: functional; set-up: scale not given: the % may be the effect or the level left

Compound: C=C[C@H](OC(C)=O)c1ccccc1
- inhibition at 100 µM (RBL-2H3 [1]): 9%

Compound: C=CCc1ccc(OC(C)=O)cc1
- inhibition at 100 µM (RBL-2H3 [1]): 11%

Compound: OC/C=C/c1ccc(O)cc1
- inhibition at 100 µM (RBL-2H3 [1]): 2%

- IC50 (RBL-2H3 [6]): 12 µM
- IC50 (RBL-2H3 [7]): 19 µM
- IC50 (RBL-2H3 [17]): 5.8 µM
Compound: C=C[C@H](OC(C)=O)c1ccc(OC(C)=O)c(OC)c1
- Control (Mus musculus [2]): 58.4%
- Control (Mus musculus [3]): 54.7%
- Control (Mus musculus [4]): 37.8%
- Control (Mus musculus [5]): 65.2%
- Inhibition (RBL-2H3 [8]): 0%
- inhibition at 10 µM (RBL-2H3 [9]): 45.9%
- inhibition at 100 µM (RBL-2H3 [10]): 99.9%
- inhibition at 3 µM (RBL-2H3 [11]): 39.4%
- inhibition at 30 µM (RBL-2H3 [12]): 98.1%
- Inhibition (RBL-2H3 [13]): 0%
- inhibition at 10 µM (RBL-2H3 [14]): 89%
- inhibition at 3 µM (RBL-2H3 [15]): 25%
- inhibition at 30 µM (RBL-2H3 [16]): 101%

Compound: CC(=O)OC/C=C/c1ccc(O)cc1
- inhibition at 100 µM (RBL-2H3 [1]): 6%

Compound: C=CCc1ccc(O[C@H]2O[C@@H](CO)[C@H](O)[C@H](O)[C@@H]2O)cc1
- inhibition at 100 µM (RBL-2H3 [1]): 0%

Compound: C=C[C@H](O)c1ccc(OC(C)=O)cc1
- inhibition at 100 µM (RBL-2H3 [1]): 4%

Compound: C=C[C@H](O)c1ccccc1
- inhibition at 100 µM (RBL-2H3 [1]): 3%

- IC50 (RBL-2H3 [7]): 60 µM
Compound: CC[C@H](OC(C)=O)c1ccc(OC(C)=O)cc1

- IC50 (RBL-2H3 [7]): > 100 µM
Compound: CC(=O)OC/C=C/c1ccc(OC(C)=O)cc1
- inhibition at 100 µM (RBL-2H3 [1]): 21%

Compound: O=C(O)/C=C/c1cccc(O)c1
- inhibition at 100 µM (RBL-2H3 [1]): 1%

Compound: C=C[C@H](OC(C)=O)c1ccc(OC(C)=O)cc1 [1'-ACETOXYCHAVICOL ACETATE]
- Control (Mus musculus [2]): 65.5%
- Control (Mus musculus [3]): 49.5%
- Control (Mus musculus [4]): 44.3%
- Control (Mus musculus [5]): 72.4%
- IC50 (RBL-2H3 [6]): 12 µM
- IC50 (RBL-2H3 [7]): 15 µM
- Inhibition (RBL-2H3 [8]): 0%
- inhibition at 10 µM (RBL-2H3 [9]): 45.9%
- inhibition at 100 µM (RBL-2H3 [10]): 99.9%
- inhibition at 3 µM (RBL-2H3 [11]): 39.4%
- inhibition at 30 µM (RBL-2H3 [12]): 98.1%
- Inhibition (RBL-2H3 [13]): 0%
- inhibition at 10 µM (RBL-2H3 [14]): 32.4%
- inhibition at 100 µM (RBL-2H3 [18]): 87.2%
- inhibition at 3 µM (RBL-2H3 [15]): 5.4%
- inhibition at 30 µM (RBL-2H3 [16]): 66.9%
- IC50 (RBL-2H3 [17]): 17 µM

Compound: COc1ccc(/C=C/C(=O)O)cc1 [4-METHOXYCINNAMIC ACID]
- inhibition at 100 µM (RBL-2H3 [1]): 11%

Compound: O=C(O)/C=C/c1ccc(O)c(O)c1 [CAFFEIC ACID]
- inhibition at 100 µM (RBL-2H3 [1]): 5%

Compound: C=CCc1ccc(O)cc1 [CHAVICOL]
- inhibition at 100 µM (RBL-2H3 [1]): 3%

Compound: O=C(O)/C=C/c1ccccc1 [CINNAMIC ACID]
- inhibition at 100 µM (RBL-2H3 [1]): 7%

Compound: O=C(O)/C=C/c1ccc(O)cc1 [COUMARIC ACID]
- inhibition at 100 µM (RBL-2H3 [1]): 6%

Compound: C=CCc1ccc(O)c(OC)c1 [EUGENOL]
- inhibition at 100 µM (RBL-2H3 [1]): 4%

Compound: C=CCc1ccc(OC(C)=O)c(OC)c1 [EUGENYL ACETATE]
- inhibition at 100 µM (RBL-2H3 [1]): 9%

- IC50 (RBL-2H3 [7]): > 100 µM
Compound: C=CCc1ccc(O)c(O)c1 [HYDROXYCHAVICOL]
- inhibition at 100 µM (RBL-2H3 [1]): 17%

Compound: O=c1cc(-c2ccc(O)c(O)c2)oc2cc(O)cc(O)c12 [LUTEOLIN]
- IC50 (RBL-2H3 [6]): 3.7 µM
- Inhibition (RBL-2H3 [8]): 0%
- inhibition at 10 µM (RBL-2H3 [9]): 89.4%
- inhibition at 3 µM (RBL-2H3 [11]): 41.6%
- inhibition at 30 µM (RBL-2H3 [12]): 99.2%
- Inhibition (RBL-2H3 [13]): 0%
- inhibition at 10 µM (RBL-2H3 [14]): 89%
- inhibition at 3 µM (RBL-2H3 [15]): 25%
- inhibition at 30 µM (RBL-2H3 [16]): 101%
- IC50 (RBL-2H3 [17]): 5.8 µM

Compound: C=CCc1ccc(OC)c(OC)c1 [METHYLEUGENOL]
- inhibition at 100 µM (RBL-2H3 [1]): 1%

Compound: COc1ccc(/C=C/C(=O)O)cc1OC [O,O'-DIMETHYLCAFFEIC ACID]
- inhibition at 100 µM (RBL-2H3 [1]): 9%

Compound: O=C(O)/C=C/c1ccccc1O [O-COUMARIC ACID]
- inhibition at 100 µM (RBL-2H3 [1]): 11%

Compound: COc1cc(/C=C/C(=O)O)cc(OC)c1O [SINAPINATE]
- inhibition at 100 µM (RBL-2H3 [1]): 10%

Compound: COc1ccc(/C=C/C(=O)Nc2ccccc2C(=O)O)cc1OC [TRANILAST]
- Control (Mus musculus [19]): 66%
- Control (Mus musculus [20]): 49.8%
- Control (Mus musculus [21]): 42.7%

- IC50 (RBL-2H3 [7]): > 100 µM
Compound: O=C/C=C/c1ccc(O)cc1 [p-HYDROXYCINNAMALDEHYDE]
- inhibition at 100 µM (RBL-2H3 [1]): 22%
